This note sets out measurements from patent US12357698B1, “FUS proteolysis-targeting chimera, preparation method and applications thereof” (SHANDONG NORMAL UNIVERSITY, priority 2024, dated 2025).

Numbering of substitutions follows the chain as printed.

Assay type in all cases: cell-based
Series [1] has as its target T1, FUS protein (Rattus norvegicus, UniProt Q5PQK2).
T1 construct: endogenous in cells; host or cells: PC12 cells
T1 sequence (Q5PQK2 1-515): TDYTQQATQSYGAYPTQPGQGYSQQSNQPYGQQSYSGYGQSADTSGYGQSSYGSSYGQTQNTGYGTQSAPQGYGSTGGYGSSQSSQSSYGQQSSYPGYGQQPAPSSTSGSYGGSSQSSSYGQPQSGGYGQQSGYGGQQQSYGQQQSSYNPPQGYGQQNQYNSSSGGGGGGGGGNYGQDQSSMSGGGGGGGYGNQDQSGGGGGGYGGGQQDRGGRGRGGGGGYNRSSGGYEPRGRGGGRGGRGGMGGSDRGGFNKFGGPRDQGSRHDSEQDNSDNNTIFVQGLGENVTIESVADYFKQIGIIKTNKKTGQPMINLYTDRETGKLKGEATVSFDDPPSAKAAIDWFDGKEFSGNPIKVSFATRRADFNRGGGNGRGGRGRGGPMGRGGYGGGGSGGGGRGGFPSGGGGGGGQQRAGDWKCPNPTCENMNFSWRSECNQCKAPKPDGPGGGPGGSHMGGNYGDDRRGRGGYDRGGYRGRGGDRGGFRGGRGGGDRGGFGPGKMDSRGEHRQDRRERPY
The series can be described thus: FUS degradation in PC12 cells, Western blot. As to conditions: liposome transfection, 24 hours. As for the experimental part: The 10 PROTACs were transfected into PC12 cells at a final concentration of 125 nM using liposomes. After 24 hours, the cells were lysed, and changes in FUS protein were detected by Western blot.
(§1) dFUS-C1 solutions were prepared at concentration gradients of 9.4 nM, 18.7 nM, 37.5 nM, 62.5 nM, and 125 nM, and were transfected into PC12 or SH-SY5Y cells using liposomes. After 24 hours, the cells were lysed, and changes in FUS protein were detected by Western blot.
In general terms: In western blotting, separated proteins are transferred to a membrane and probed.

Series [2] concerns the target T2, FUS protein (Homo sapiens, UniProt P35637).
T2 construct: endogenous in cells; host or cells: SH-SY5Y cells
T2 sequence (P35637 1-526): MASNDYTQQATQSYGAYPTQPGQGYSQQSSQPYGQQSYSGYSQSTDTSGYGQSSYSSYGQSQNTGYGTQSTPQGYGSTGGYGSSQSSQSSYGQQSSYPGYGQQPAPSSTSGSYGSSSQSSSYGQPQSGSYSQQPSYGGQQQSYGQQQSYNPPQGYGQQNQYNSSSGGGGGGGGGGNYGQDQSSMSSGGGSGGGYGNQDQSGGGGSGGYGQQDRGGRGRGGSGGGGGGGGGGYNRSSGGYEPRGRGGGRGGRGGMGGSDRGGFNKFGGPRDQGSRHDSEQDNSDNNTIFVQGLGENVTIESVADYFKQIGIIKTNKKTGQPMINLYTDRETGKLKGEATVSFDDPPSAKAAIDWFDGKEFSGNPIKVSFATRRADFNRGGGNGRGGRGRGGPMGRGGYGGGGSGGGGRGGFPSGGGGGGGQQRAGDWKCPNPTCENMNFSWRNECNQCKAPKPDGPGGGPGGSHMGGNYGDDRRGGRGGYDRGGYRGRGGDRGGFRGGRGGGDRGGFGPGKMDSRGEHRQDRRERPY
The series can be described thus: FUS degradation in SH-SY5Y cells, Western blot. The settings on record: concentration gradient 9.4-125 nM, liposome transfection, 24 hours. As for the experimental part: as §1
Then 15% non-denaturing polyacrylamide gel electrophoresis was performed at 120 V for about 70 min, followed by staining with SYBR Gold nucleic acid gel stain, and finally imaged using a Bio-RAD instrument. […] For testing the FUS protein degradation performance of dFUS-PS, dFUS-PS solutions were prepared at concentration gradients of 9.4 nM, 18.7 nM, 37.5 nM, 62.5 nM, and 125 nM, and were transfected into SH-SY5Y cells using liposomes. After 24 hours, the cells were lysed, and changes in FUS protein were detected by Western blot.

Series [3] deals with FUS protein. The series can be described thus: Proteomics before and after dFUS-C1 treatment.
Series [4] has as its target T3, FUS-WT (Homo sapiens, UniProt P35637).
T3 construct: expressed in transfected cells; host or cells: 293T cells
T3 sequence (P35637 1-526): T2 sequence (P35637 1-526)
The series can be described thus: Degradation of FUS-WT in 293T cells, Western blot. The settings on record: 1000 nM, 24 hours.

Series [5] addresses T4, FUS-P525L (Homo sapiens, UniProt P35637, P525L).
T4 construct: expressed in transfected cells; host or cells: 293T cells
T4 sequence (P35637 1-526 P525L): T2 sequence (P35637 1-526) with P525L
The series can be described thus: Degradation of mutant FUS-P525L in 293T cells, Western blot. The settings on record: 1000 nM, 24 hours. As for the experimental part:
(§2) dFUS-C1 solutions were prepared at concentration gradients of 37.5 nM, 62.5 nM, 125 nM, 250 nM, 500 nM, 1000 nM, and 2000 nM, and were transfected into 293T cells expressing different mutant FUS proteins using liposomes. After 24 hours, the cells were lysed, and changes in FUS protein were detected by Western blot. FIG. 11A to FIG. 11E show the degradation of different mutant FUS by dFUS-C1 in 293T cells.

The target of series [6] is T5, FUS-R521C (Homo sapiens, UniProt P35637, R521C).
T5 construct: expressed in transfected cells; host or cells: 293T cells
T5 sequence (P35637 1-526 R521C): T2 sequence (P35637 1-526) with R521C
In words: Degradation of mutant FUS-R521C in 293T cells, Western blot. The settings on record: 1000 nM, 24 hours. Here is the method: as §2

In series [7] the target is T6, FUS-R521G (Homo sapiens, UniProt P35637, R521G).
T6 construct: expressed in transfected cells; host or cells: 293T cells
T6 sequence (P35637 1-526 R521G): T2 sequence (P35637 1-526) with R521G
The series can be described thus: Degradation of mutant FUS-R521G in 293T cells, Western blot. The settings on record: 1000 nM, 24 hours. Here is the method: as §2

The target of series [8] is T7, FUS-R521H (Homo sapiens, UniProt P35637, R521H).
T7 construct: expressed in transfected cells; host or cells: 293T cells
T7 sequence (P35637 1-526 R521H): T2 sequence (P35637 1-526) with R521H
In words: Degradation of mutant FUS-R521H in 293T cells, Western blot. The settings on record: 1000 nM, 24 hours. As for the experimental part:
as §2

The subject of series [9] is SH-SY5Y cells. In words: Neurotoxicity caused by FUS overexpression (ROS, LDH release, CCK8). As to conditions: SH-SY5Y cells transfected with FUS plasmids, CCK8 cell viability. Here is the method:
In this example, ROS detection kit, LDH release detection kit, and CCK8 reagent were used for cytotoxicity detection. Specifically: 5×10^3 SH-SY5Y cells were added to 96-well plates and cultured at 37° C., 5% CO2 cell incubator for 12 hours; FUS plasmids were transfected into the wells, then the cells were cultured at 37° C., 5% CO2 cell incubator for 24 hours, indicated reagents were added to each well, and corresponding indicators were detected according to the kit instructions.
(In general: LDH in the medium is a marker of cell lysis.)

For the substance “dFUS-C1: PROTAC obtained by coupling FUS-1 (N3-FUS-RNA #1, SEQ ID NO: 1) with CRBN ligand (GUUUGGUGAUGUUUGGUGAU; RNA, backbone not given here; 5' azide via C6 amino linker, click-coupled to CRBN ligand (PROTAC))”, the “degradation of FUS protein” value was “stably and efficiently degrade FUS protein” in series [1] (125 nM); “could efficiently degrade FUS protein” in [1] (concentration gradient 9.4-125 nM); “could efficiently degrade FUS protein” in [2]. In series [3], the “specificity of degradation (proteomics)” value is “specific degradation effects on FUS protein”. Moreover, the “degradation of FUS-WT” value in series [4] is “could efficiently degrade”. For the same substance, the “degradation of FUS-P525L” value in [5] is reported as “could efficiently degrade”. Also, the “degradation of FUS-R521C” value in [6] was “could efficiently degrade”. Besides, the “degradation of FUS-R521G” value in series [7] is reported as “could efficiently degrade”. Moreover, the “degradation of FUS-R521H” value in series [8] was “could efficiently degrade”. Also, in [9], the “neurotoxicity caused by FUS overexpression” value was “significantly inhibited the neurotoxicity caused by FUS overexpression”.
